Data: patent US12427134B2, “Methods of reducing the risk of cardiovascular events in a subject with atrial fibrillation and/or atrial flutter” (priority 2019, dated 2025)
Read-outs that look alike come from different tables or passages of the source.

Legend:
[1] = test system: hypertriglyceridemic patients with cardiovascular disease or at high risk for cardiovascular disease; assay: REDUCE-IT: primary and key secondary endpoints adjusted for baseline covariates (stepwise selection) and time varying post-baseline lipids; format: in vivo, human; settings: ITT
Description: The primary efficacy analysis was performed on the ITT population. A sensitivity analysis was performed using the mITT and PP populations. As a sensitivity analysis, patients who discontinued study drug prematurely were censored for the primary composite endpoint analysis on the date of drug discontinuation. The primary analysis was repeated using this censoring rule for the mITT population. As a supportive analysis, a multivariable, stratified Cox proportional hazards model was constructed for the primary endpoint to evaluate the treatment effect adjusting for important covariates.
As an additional exploratory analysis, the relationship between post-baseline biomarker values and treatment effects with the primary and key secondary endpoints were assessed by adding biomarker values (for example, at 4 months, or at 1 year, etc.) as time-dependent covariates in the Cox proportional hazards model. Diagnostic plots for the proportional hazard's assumption was evaluated. Weight was measured at the screening visit and at all follow-up visits, including the last visit of the study. Waist circumference was measured at the randomization visit (Visit 2; Day 0), Visit 5 (Day 720) and the last visit of the study. Descriptive statistics were presented by visit and treatment group for baseline, post-treatment change from baseline, and the percent change from baseline. Analysis methods for repeated measurements were used to compare percent change from baseline between treatments.
In the main analysis of the primary endpoint for the REDUCE-IT trial, treatment was the only covariate employed in the stratified Cox proportional hazards model. Stratification variables included CV risk category at baseline (primary prevention cohort and secondary prevention cohort), use of ezetimibe at baseline (yes/no), and geographical region (Westernized, Eastern European, and Asia Pacific).
The model included treatment and any of the following variables, identified by a stepwise selection procedure: (1) sex; (2) age at baseline (<65 or ≥65 years); (3) race (white and non-white); (4) presence/absence of diabetes at baseline; (5) baseline LDL-C (by tertile); (6) baseline HDL-C (by tertile); (7) baseline non-HDL-C (by tertile); (8) baseline TG (by tertile); (9) baseline hsCRP (≤3 mg/Land >3 mg/L); (10) baseline apo B (by tertile); (11) baseline RLP-C (by tertile); (12) Hopkins calculated LDL-C at baseline (by tertile); (13) waist/height ratio at baseline; (14) waist circumference at baseline.
The SAS proportional hazard regression procedure was used to automatically conduct the stepwise selection of the important baseline covariates. The minimum p-value for the inclusion of the baseline covariate into the proportional hazard model was 0.05, and these selected baseline covariates with p<0.10 would remain in the final model as important baseline covariates after all baseline covariates were evaluated by the model. The HR, 95% CI, and p-value comparing the two treatment groups, and the HR, 95% CI, and p-value for adjusting each selected important baseline covariate in the final model were presented.
As an additional exploratory analysis, the relationships between post-baseline lipid values and treatment effects with the primary and key secondary endpoints were assessed by adding lipid values (at 4 months, 1 year, etc.) as time varying covariates in the Cox proportional hazards model. Diagnostic plots for the proportional hazard's assumption was evaluated.

[2] = test system: hypertriglyceridemic patients with cardiovascular disease or at high risk for cardiovascular disease; settings: human, in vivo
Description: Specification of Variables and Procedures: Safety assessments included adverse events, clinical laboratory measurements (chemistry, hematology), 12-lead ECGs, vital signs (systolic and diastolic blood pressure, heart rate, respiratory rate, and body temperature), weight, waist circumference, and physical examinations as per Study Procedures in Table 1. […] All laboratory test results were evaluated by the investigator as to their clinical significance. Any observations at physical examinations or laboratory values considered by the investigator to be clinically significant were considered an adverse event.
An adverse event can therefore be any unfavorable and/or unintended sign (including an abnormal laboratory finding), symptom, or disease temporally associated with the use of an investigational medication product, whether or not related to the investigational medication product. All adverse events, including observed or volunteered problems, complaints, or symptoms, were recorded on the appropriate CRF. Each adverse event was evaluated for duration, intensity, and causal relationship with the study medication or other factors.
Adverse events, which included clinical laboratory test variables, were monitored from the time of informed consent until study participation was complete. Patients were instructed to report any adverse event that they experienced to the investigator. Beginning with Visit 2, investigators assessed for adverse events at each visit and recorded the event on the appropriate adverse event CRF.
Causality Assessment: The relationship of an adverse event to the administration of the study drug was assessed according to the following definitions: • No (unrelated, not related, no relation)—The time course between the administration of study drug and the occurrence or worsening of the adverse event rules out a causal relationship and another cause (concomitant drugs, therapies, complications, etc.) is suspected. • Yes (related, probably related, possibly related)—The time course between the administration of study drug and the occurrence or worsening of the adverse event is consistent with a causal relationship and no other cause (concomitant drugs, therapies, complications, etc.) can be identified.
Serious Adverse Events: A serious adverse event (SAE) is defined as an adverse event that meets any of the following criteria: • Results in death; • Is life-threatening—The term “life-threatening” in the definition of “serious” refers to an event in which the patient was at risk of death at the time of the event. […] Important medical events that may not result in death, be life threatening, or require hospitalization were considered an SAE when, based upon appropriate medical judgment, they may have jeopardized the patient and may have required medical or surgical intervention to prevent one of the outcomes listed above.
Analysis of Safety: All analyses of safety were conducted on the safety population, which was defined as all randomized patients. The safety assessment was based on the frequency of adverse events, physical exams, vital signs and safety laboratory tests. AEs with new onset during the study between the initiation of study drug and 30 days after the last dose of study drug for each patient was considered treatment-emergent (TEAEs). This included any AE with onset prior to initiation of study drug and increased severity after the treatment initiation.
This included overall incidence rates (regardless of severity and relationship to study drug), and incidence rates for moderate or severe adverse events. A summary of SAEs and adverse events leading to early discontinuation (for ≥30 days) were presented through data listings. Patients who restarted study drug were included in the summary of AEs leading to discontinuation.

[3] = Overall (with all selected covariates)
[4] = adjusting baseline covariate: Age at baseline (<65 or ≥65 years)
[5] = adjusting baseline covariate: Baseline hsCRP (≤3 mg/L or >3 mg/L)
[6] = adjusting baseline covariate: Baseline non-HDL-C (by tertile)
[7] = adjusting baseline covariate: Presence/absence of diabetes at baseline
[8] = adjusting baseline covariate: Sex
[9] = adjusting time varying covariate HDL-C (mg/dL)
[10] = adjusting time varying covariate LDL-C (Hopkins) (mg/dL)
[11] = adjusting time varying covariate LDL-C (ultracentrifugation) (mg/dL)
[12] = adjusting time varying covariate LDL-C derived (mg/dL)
[13] = adjusting time varying covariate RLP-C (mg/dL)
[14] = adjusting time varying covariate TG (mg/dL)
[15] = adjusting time varying covariate apo B (mg/dL)
[16] = adjusting time varying covariate hsCRP (mg/dL)

Compound: CC/C=C\C/C=C\C/C=C\C/C=C\C/C=C\CCCC(=O)OCC [AMR101, eicosapentaenoic acid ethyl ester]
- Time to key secondary endpoint, HR (95% CI) AMR101/Placebo [1, 3]: 0.730 (0.647-0.825)
- Time to primary endpoint, HR (95% CI) AMR101/Placebo [1, 3]: 0.750 (0.680-0.828)
- Time to key secondary endpoint, HR (95% CI) AMR101/Placebo [1, 4]: 0.739 (0.654-0.834)
- Time to primary endpoint, HR (95% CI) AMR101/Placebo [1, 4]: 0.755 (0.684-0.833)
- Time to key secondary endpoint, HR (95% CI) AMR101/Placebo [1, 5]: 0.731 (0.648-0.826)
- Time to primary endpoint, HR (95% CI) AMR101/Placebo [1, 5]: 0.750 (0.679-0.828)
- Time to key secondary endpoint, HR (95% CI) AMR101/Placebo [1, 6]: 0.738 (0.654-0.833)
- Time to primary endpoint, HR (95% CI) AMR101/Placebo [1, 6]: 0.755 (0.684-0.833)
- Time to key secondary endpoint, HR (95% CI) AMR101/Placebo [1, 7]: 0.731 (0.647-0.825)
- Time to primary endpoint, HR (95% CI) AMR101/Placebo [1, 7]: 0.750 (0.679-0.827)
- Time to key secondary endpoint, HR (95% CI) AMR101/Placebo [1, 8]: 0.734 (0.650-0.829)
- Time to primary endpoint, HR (95% CI) AMR101/Placebo [1, 8]: 0.751 (0.680-0.829)
- Time to key secondary endpoint, HR (95% CI) for Treatment (AMR101 vs Placebo) [1, 9]: 0.710 (0.629-0.802)
- Time to primary endpoint, HR (95% CI) for Treatment (AMR101 vs Placebo) [1, 9]: 0.730 (0.661-0.806)
- Time to primary endpoint, HR (95% CI) for Treatment (AMR101 vs Placebo) ([1]; adjusting time varying covariate LDL-C (Friedewald) (mg/dL)): 0.760 (0.688-0.839)
- Time to key secondary endpoint, HR (95% CI) for Treatment (AMR101 vs Placebo) [1, 10]: 0.761 (0.674-0.860)
- Time to primary endpoint, HR (95% CI) for Treatment (AMR101 vs Placebo) [1, 10]: 0.772 (0.699-0.852)
- Time to key secondary endpoint, HR (95% CI) for Treatment (AMR101 vs Placebo) [1, 11]: 0.737 (0.652-0.834)
- Time to primary endpoint, HR (95% CI) for Treatment (AMR101 vs Placebo) [1, 11]: 0.759 (0.687-0.839)
- Time to key secondary endpoint, HR (95% CI) for Treatment (AMR101 vs Placebo) [1, 12]: 0.740 (0.655-0.836)
- Time to primary endpoint, HR (95% CI) for Treatment (AMR101 vs Placebo) [1, 12]: 0.752 (0.681-0.830)
- Time to key secondary endpoint, HR (95% CI) for Treatment (AMR101 vs Placebo) [1, 13]: 0.768 (0.679-0.867)
- Time to primary endpoint, HR (95% CI) for Treatment (AMR101 vs Placebo) [1, 13]: 0.784 (0.709-0.866)
- Time to key secondary endpoint, HR (95% CI) for Treatment (AMR101 vs Placebo) [1, 14]: 0.754 (0.668-0.851)
- Time to primary endpoint, HR (95% CI) for Treatment (AMR101 vs Placebo) [1, 14]: 0.772 (0.700-0.853)
- Time to key secondary endpoint, HR (95% CI) for Treatment (AMR101 vs Placebo) [1, 15]: 0.752 (0.665-0.850)
- Time to primary endpoint, HR (95% CI) for Treatment (AMR101 vs Placebo) [1, 15]: 0.762 (0.690-0.842)
- Time to key secondary endpoint, HR (95% CI) for Treatment (AMR101 vs Placebo) [1, 16]: 0.745 (0.660-0.841)
- Time to primary endpoint, HR (95% CI) for Treatment (AMR101 vs Placebo) [1, 16]: 0.758 (0.686-0.836)
- Time to key secondary endpoint, HR (95% CI) for Treatment (AMR101 vs Placebo) ([1]; adjusting time varying covariate non-HDL-C (mg/dL)): 0.773 (0.684-0.874)
- TEAE: Infections and infestations, % ([2]; female): (48.9) %
- SAE class infections and infestations, patients [2]: 8.1%
- Serious adverse event - Infections and infestations (SOC), % patients [2]: (8.1) %
- Serious adverse event - Infections and infestations (SOC), n patients [2]: 332
- Serious adverse event - Sepsis, % patients [2]: (0.6) %
- Serious adverse event - Sepsis, n patients [2]: 25
- Serious adverse event - Urinary tract infection, % patients [2]: (0.6) %
- Serious adverse event - Urinary tract infection, n patients [2]: 25
- Severe TEAE class infections and infestations, patients [2]: 5.1%
- Severe TEAE: Infections and infestations, % [2]: (5.1) %
- Severe TEAE: Sepsis, % [2]: (0.5) %
- Severe TEAE: Urinary tract infection, % [2]: (0.3) %
- TEAE class infections and infestations, patients [2]: 44.6%
- TEAE: Upper respiratory tract infection, % [2]: (7.6) %
- TEAE: Urinary tract infection, % [2]: (6.2) %
- TEAE: Infections and infestations, % ([2]; male): (42.8) %
